# Results taken from patent US7166472B2, “Method for the identification of agents that inhibit or promote cataracts and uses thereof” (The General Hospital Corporation, priority 2000, dated 2007).
# Where a chain is given by its changes, count along the chain named.
# Experiments:
# [1] = Cyclic voltammetry of kynurenine metabolites with Cu(II); format: physicochemical; details: metabolite 100 μM, cupric chloride 25 μM, PBS pH 7.4
# Description: Cyclic Voltammetry—Cyclic voltammetry was performed at room temperature (22±2° C.) on ambient solutions using an EG&G PAR potentiostat, Model 273. The potentiostat was operated in Ramp Mode, generating a potential staircase waveform with a 0.25 mV step height. The potential window of +0.15 to −0.4V, in which Cu(I) is electroactive, but the metabolites are not, was scanned in both directions at a rate of 100 mV/sec. The current response was passed through a 5.3 Hz low pass filter. A minimum of three cycles were collected for each scan, ensuring the stability of the electrochemical response. The electrochemical cell consisted of an indium/tin oxide working electrode (Delta Technologies) with an active area of 0.32 cm^2, a platinum wire auxiliary electrode, and a Ag/AgCl (1 M KCl) reference electrode (Microelectrodes Inc.). Both the auxiliary and reference electrodes were positioned in the cell in close proximity to the working electrode. The working electrodes were pretreated with successive 10 minute sonications in Alconox (˜8 g/L), 95% ethanol, Milli-Q purified H2O (2×), and PBS (pH 7.4), followed by an overnight soak in PBS (pH 7.4). The ITO electrodes were subsequently “activated” immediately prior to use by successive cycling in PBS for three cycles in each of the following potential windows: +0.15 ? −0.4 V, +0.4 ? −0.4 V, and +1.0 ? −0.4 V. Cupric chloride (25 μM; Allied Chemical) was used as the Cu(II) source. Background voltammograms were obtained on each new electrode before testing the kynurenine pathway metabolites. PBS solutions of KYN, 3-HK, ANA, and 3-HAA (each at 100 μM) were separately scanned with and without added Cu(II) (25 μM). Each experiment also included a scan of Cu(II) (25 μM) in PBS without added test compound. All solutions were tested within minutes of being prepared. Each test was repeated to ensure the reproducibility of the results.
# The voltammograms in FIGS. 3A–3D compare 3-HK and 3-HAA to their corresponding non-phenolic analogs, kynurenine (KYN) and anthranilic acid (ANA), in aqueous solutions of Cu(II) at pH 7.4. […] At potentials above +0.15 V, the metabolites undergo direct irreversible oxidation, a reaction that is not considered further here. Cyclic voltammetry of Cu(II) in PBS yielded a current response at ≈−100 mV due to reduction of the metal ion (scan “b” in each panel).
# [2] = Metal reduction assay, Fe(III) to Fe(II) (BP indicator); format: biochemical; details: test compound 10 μM, Fe(III)-citrate 25 μM, PBS pH 7.4, 37° C., dark, one hour
# Description: Metal Reduction Assays—Assays were performed using a 96-well microtiter plate (Costar, Mass.). Test compounds from the kynurenine pathway (10 μM) or, as a positive control, ascorbic acid (ASC, 10 μM) were co-incubated with either Fe(III)-citrate (25 μM) and the Fe(II) indicator bathophenanthroline disulfonic acid (BP, 250 μM), or Cu(II)-glycine (25 μM) and the Cu(I) indicator bathocuproine disulfonic acid (BC) or bicinchoninic acid (BCA, 250 μM). Incubations were conducted in PBS, pH 7.4, at 37° C. in the dark for one hour. Absorbencies were then measured using a plate reader (SPECTRAmax Plus, Molecular Devices, CA) at the appropriate wavelengths: Fe(II)-BP complex at 535 nm (the known molar absorption coefficient, M535,=22140 M^−1 cm^−1), Cu(I)-BC complex at 483 nm, M483=12250 M^−1cm^−1), or Cu(I)-BCA complex at 562 nm, M562=7700 M^−1cm^−1). In control samples, absorbance from the metal ion and indicator in the absence of test compound and the absorbance of test compound in the presence of metal ions, but in the absence of indicator, were determined. The absorbencies from these controls were deducted from those obtained in the presence of the test compound, metal and indicator to yield the net absorbance (ΔA). Fe(II) or Cu(I) concentrations (μM) were calculated according to the formula: C(μM)=ΔA*10^6/Mλ. […]
# [3] = Thiobarbituric acid-reactive substance (TBARS) assay for hydroxyl radical; format: biochemical; details: reaction with Cu(II)
# Description: Although two Fenton chemistry substrates, hydrogen peroxide and reduced redox-active metal, are produced by 3-HK and 3-HAA, evidence of the hydroxyl radical was not detected using the thiobarbituric acid-reactive substance assay (Huang, X. et al., Biochem. 38:7609–7616 (1999)) (data not shown).
# [4] = molecular target: T1, α-crystallin (Bos taurus, UniProt P02470+P02510); test: α-Crystallin modification under longwave ultraviolet illumination; format: biochemical; details: exposure of α-crystallin in the presence of longwave ultraviolet illumination
# T1 sequence (P02470 1-173): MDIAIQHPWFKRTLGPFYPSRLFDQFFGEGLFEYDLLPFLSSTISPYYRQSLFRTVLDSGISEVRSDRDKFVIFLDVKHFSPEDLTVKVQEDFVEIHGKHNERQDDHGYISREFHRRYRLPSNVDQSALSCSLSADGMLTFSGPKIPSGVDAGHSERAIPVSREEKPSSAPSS
# T1 sequence (P02510 1-175): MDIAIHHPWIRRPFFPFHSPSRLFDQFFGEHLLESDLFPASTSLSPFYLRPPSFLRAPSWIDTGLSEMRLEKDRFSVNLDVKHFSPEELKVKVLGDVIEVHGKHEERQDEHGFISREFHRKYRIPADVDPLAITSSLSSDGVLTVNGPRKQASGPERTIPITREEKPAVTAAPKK
# [5] = Superoxide assay (dihydroethidium fluorometric); format: biochemical; details: test compound 10 μM
# Description: Superoxide Assay—The fluorometric assay for superoxide is based upon the dihydroethidium (DHE, HYDROETHDNE™) method (Molecular Probes, Eugene, Oreg.) and used according to the manufacturer's instructions. DHE (1 mM) was freshly prepared in 100% argon-sparged DMSO. The reaction solutions were carried out in PBS, pH 7.4, under ambient gas conditions, in 96-well format plates and contained a test compound (KYN, 3-HK, 3-HAA, and ANA, each at 10 μM), DHE (100 μM), +/− Cu(II)-glycine (1 μM) and incubated at 37EC for 60 minutes. […] Abolition of the reading by co-incubation with superoxide dismutase (1000 U/ml) was used for establishing superoxide specificity. The fluorescent readings were recorded by a Packard FLUOROCOUNT™ fluorescent plate reader with a 510 nm excitation filter and 590 nm emission filter. Potassium superoxide dissolved in degassed DMSO was used as a positive control.
# [6] = Metal reduction assay, Cu(II) to Cu(I) (BC/BCA indicator); format: biochemical; details: for reduction of Cu(II): test compound 10 μM, Cu(II)-glycine 25 μM, PBS pH 7.4, 37° C., dark, one hour
# Description: Metal Reduction Assays—Assays were performed using a 96-well microtiter plate (Costar, Mass.). Test compounds from the kynurenine pathway (10 μM) or, as a positive control, ascorbic acid (ASC, 10 μM) were co-incubated with either Fe(III)-citrate (25 μM) and the Fe(II) indicator bathophenanthroline disulfonic acid (BP, 250 μM), or Cu(II)-glycine (25 μM) and the Cu(I) indicator bathocuproine disulfonic acid (BC) or bicinchoninic acid (BCA, 250 μM). Incubations were conducted in PBS, pH 7.4, at 37° C. in the dark for one hour. Absorbencies were then measured using a plate reader (SPECTRAmax Plus, Molecular Devices, CA) at the appropriate wavelengths: Fe(II)-BP complex at 535 nm (the known molar absorption coefficient, M535,=22140 M^−1 cm^−1), Cu(I)-BC complex at 483 nm, M483=12250 M^−1cm^−1), or Cu(I)-BCA complex at 562 nm, M562=7700 M^−1cm^−1). In control samples, absorbance from the metal ion and indicator in the absence of test compound and the absorbance of test compound in the presence of metal ions, but in the absence of indicator, were determined. The absorbencies from these controls were deducted from those obtained in the presence of the test compound, metal and indicator to yield the net absorbance (ΔA). Fe(II) or Cu(I) concentrations (μM) were calculated according to the formula: C(μM)=ΔA*10^6/Mλ.
# The compounds comprising the kynurenine pathway (FIG. 1) were assayed for their ability to reduce […] and Cu(II) (FIG. 2A). […] Values represent the mean±SD for three independent measurements.
# [7] = Hydrogen peroxide assay (DCF fluorometric); format: biochemical
# Description: Hydrogen Peroxide Assay—The fluorometric assay for hydrogen peroxide is based on the dichlorofluorescein diacetate (DCF) method (Molecular Probes, Eugene, Oreg.). The DCF solution (5 mM) in 100% ethanol was deacetylated in the presence of 0.01 M NaOH for 30 minutes and neutralized. Horseradish peroxidase (200 U/ml) was then added and the DCF concentration adjusted to 200 μM in PBS. The reaction solutions were carried out in PBS, pH 7.4, in a 96-well format plate (total volume=300 μL/well) and contained a test compound (KYN, 3-HK, 3-HAA, ANA, or ASC, each at 10 μM), deacetylated DCF (20 μM), and Cu(II)-glycine (1 μM) as indicated, incubated at 37° C. for 60 minutes. […] Abolition of the reading by co-incubation with catalase (1000 U/ml) was used for establishing H2O2 specificity. The fluorescent readings were recorded by a Packard FLURORCOUNT™ fluorescent plate reader with a 485 nm excitation filter and 530 nm emission filter. Concentrations were determined by comparison to a standard curve using reagent grade hydrogen peroxide in CHELEX™ chelating ion exchanae resin-treated PBS buffer, pH 7.4.
# Reactions were conducted in the absence of added Cu(II), in the presence of added glycine-complexed Cu(II) (1 μM), in the presence of added glycine-complexed Cu(II) (1 μM) and catalase (1000 U/ml), or with added glycine-complexed Cu(II) (1 μM) and the copper chelator triethylenetetramine (TETA, 200 μM).
# [8] = Metal reduction capacity of tanned calf lens α-crystallin, Cu(II); format: biochemical; details: α-crystallin treated with 100 μM reductant, then dialysis
# Description: Studies of Tanned Calf Lens Crystalin in Assay of Crystallin Protein for Metal Reduction Capacity—α-Crystallin (10 mg/ml) from calf lens was modified by reaction with 3-HK (100 μM), 3-HAA (100 μM), or ASC (100 μM) in PBS, ph 7.4, for 12 hours at 4° C. in the dark. Control samples were incubated with ascorbic acid (100 μM) or without added reductant. The tanning incubation solutions also contained triethylenetetramine (TETA, 200 μM) to prevent cross-linking of the protein. After incubation, free reductant was removed from the tanned α-crystallin preparations by exhaustive dialysis at 4EC in the dark utilizing PBS, pH 7.4, containing CHELEX™ 100 chelating ion exchange resin (BioRad, Hercules, Calif.). The various modified α-crystallin preparations (100 μg/ml) were co-incubated with either Cu(II)-glycine glycine (25 μM) or Fe(III)-citrate (25 μM) for one hour at 37° C. and assayed for metal reduction capacity using the BC and BP spectrophotometric assay as detailed above. Incubated and dialyzed α-crystallin (100 μg/ml) and untreated α-crystallin (100 μg/ml) preparations were used for procedural control.
# 3-HK: α-crystallin reduced nearly 100% of the available Cu(II) and approximately 20% of the available Fe(III). 3-HAA: α-crystallin reduced approximately 65% of the available Cu(II).
# [9] = Hydrogen peroxide assay (DCF fluorometric); format: biochemical; details: reacting with Cu(II), 37° C., dark
# [10] = molecular target: bovine serum albumin (BSA) (Bos taurus, UniProt P02769); details: 3-HK with Cu(II); TETA
# [11] = molecular target: T2, αB-crystallin (Bos taurus, UniProt P02510); test: αB-crystallin cross-linking in total calf lens protein (Western blot)
# T2 sequence (P02510 1-175): T1 sequence (P02510 1-175)
# [12] = molecular target: T3, recombinant human αB-crystallin (Homo sapiens, UniProt P02511); test: Recombinant human αB-crystallin cross-linking (SDS-PAGE, silver stain); format: biochemical; details: TETA 200 μM
# T3 construct: gift of Dr. J. Liang, Brigham and Women's Hospital
# T3 sequence (P02511 1-175): T1 sequence (P02510 1-175) with A40T, I61F, A132T, A152V
# Description: Various solutions containing 3-HK (10 μM) or other kynurenine pathway metabolites (10 μM), Cu(II)-glycine (10 μM), Fe(III)-citrate (10 μM), and triethylenetetramine (TETA, 200 μM), were added in combinations as indicated. […] After incubation, aliquots of the total lens protein solutions were mixed with sample buffer containing 4% SDS and 5% β-mercaptoethanol, heated to 95° C. for 5 minutes, and loaded at 1 μg/lane on a 10–20% Tricine gel (Novex, San Diego, Calif.). […] For the experiments with recombinant αB-crystallin, aliquots of the protein solutions were mixed with sample running buffer containing NuPAGE sample buffer (Novex, San Diego, Calif.) and 10% β-mercaptoethanol, heated to 95° C. for 5 minutes, spun briefly, then loaded on a NuPAGE 4–12% Bis-Tris polyacrylamide gel at 375 ng/lane and electrophoresed with denaturing 3-(N-morpholino)propanesulfonic acid (MOPS)-SDS running buffer according to the manufacturer's recommendations.
# To exclude the effects of other lens proteins on the observed findings in FIG. 5, these interactions with purified recombinant human αB-crystallin were examined.
# Chain of bovine serum albumin (BSA) (P02769 25-607): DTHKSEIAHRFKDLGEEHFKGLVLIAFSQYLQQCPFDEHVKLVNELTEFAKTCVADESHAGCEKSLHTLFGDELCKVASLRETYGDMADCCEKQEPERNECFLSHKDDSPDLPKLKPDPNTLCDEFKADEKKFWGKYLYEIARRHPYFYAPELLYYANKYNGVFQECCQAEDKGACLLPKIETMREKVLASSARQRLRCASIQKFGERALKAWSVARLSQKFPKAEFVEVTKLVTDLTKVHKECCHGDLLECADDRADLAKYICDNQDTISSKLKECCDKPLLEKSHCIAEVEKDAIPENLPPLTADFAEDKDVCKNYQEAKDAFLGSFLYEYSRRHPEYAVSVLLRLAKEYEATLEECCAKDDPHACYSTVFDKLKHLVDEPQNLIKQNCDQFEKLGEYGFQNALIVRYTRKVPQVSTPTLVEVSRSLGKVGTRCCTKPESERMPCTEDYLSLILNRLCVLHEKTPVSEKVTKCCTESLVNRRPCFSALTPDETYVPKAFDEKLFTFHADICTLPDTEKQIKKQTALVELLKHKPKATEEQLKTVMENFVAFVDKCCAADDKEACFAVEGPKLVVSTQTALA
smiles,measurement,setting,value
"Nc1c(O)cccc1C(=O)O [3-HAA, 3-hydroxyanthranilic acid]",Cu(II) reduction wave in presence of metabolite,[1],markedly decreased
same,reduction of Fe(III),[2],approximately 50%
same,evidence of the hydroxyl radical,[3],not detected
same,capacity of altered α-crystallin to reduce metal and generate hydrogen peroxide,[4],dramatically enhanced capacity
same,effect of Cu(II) on superoxide generation,[5]; Cu(II)-glycine 1 μM,strongly promoted
same,superoxide production,"[5]; ambient oxygen, dark, 60 minutes",significant superoxide production
same,reduction of Cu(II),[6],100%
same,hydrogen peroxide generated relative to available Cu(II),[7],approximately 3 fold
same,hydrogen peroxide generated,"[7]; ambient gas conditions, CHELEX-treated PBS, FIG. 4C",approx. 3 μM
"O=C1O[C@H]([C@@H](O)CO)C(O)=C1O [ASC, ascorbic acid, reference compound]",capacity of altered α-crystallin to reduce metal and generate hydrogen peroxide,[4],did not share this property
same,enhancement of α-crystallin reducing efficiency after treatment,[8],did not result in the enhancement
same,time dependence of hydrogen peroxide generation,[9],continuous over five hours
"NCCNCCNCCN [TETA, triethylenetetramine, reference compound]",effect on BSA protein depletion,[10],abolished
same,effect on 3-HK induced αB-crystallin cross-linking,[11]; TETA 200 μM co-incubation,abolished
same,effect on depletion of monomeric αB-crystallin,"[11]; co-incubated with 3-HK and Cu(II), TETA 200 μM",reversed the depletion
same,effect on 3-HAA Cu(II)-dependent oligomerization and loss of the monomer,[12],reversed
same,effect on cross-linking by Cu(II) and 3-HK,[12],substantially attenuated
same,effect on depletion of monomeric αB-crystallin by 3-HK and Cu(II),[12],completely reversed the depletion
same,"effect of chelator on metal reduction by 3-HK, 3-HAA and XA",[6]; chelator 250 μM,abolished
same,effect on hydrogen peroxide generation by 3-HK or 3-HAA,"[7]; Cu(II) 1 μM, catalase 1000 U/ml or TETA 200 μM",abolished
"O=C(O)c1cc(O)c2cccc(O)c2n1 [XA, xanthurenic acid]",reduction of Fe(III),[2],did not reduce
same,reduction of Cu(II),[6],approximately 40%
